Experimental data taken from publication PMC3038857, “Using Nuclear Receptor Activity to Stratify Hepatocarcinogens” (PLoS ONE, 2011).
Where two headings read alike, the source gives them in different places.

Experiments:
liver = settings: cited from earlier work
[1] = target: T1, PPARA (peroxisome proliferator-activated receptor alpha) (Homo sapiens, UniProt Q07869); assay: ATG_PPARa_TRANS: Factorial reporter gene assay (HepG2); type: cell-based; set-up: scale not given here
T1 construct: expressed in transfected cells; host or cells: HepG2
T1 sequence (Q07869 1-468): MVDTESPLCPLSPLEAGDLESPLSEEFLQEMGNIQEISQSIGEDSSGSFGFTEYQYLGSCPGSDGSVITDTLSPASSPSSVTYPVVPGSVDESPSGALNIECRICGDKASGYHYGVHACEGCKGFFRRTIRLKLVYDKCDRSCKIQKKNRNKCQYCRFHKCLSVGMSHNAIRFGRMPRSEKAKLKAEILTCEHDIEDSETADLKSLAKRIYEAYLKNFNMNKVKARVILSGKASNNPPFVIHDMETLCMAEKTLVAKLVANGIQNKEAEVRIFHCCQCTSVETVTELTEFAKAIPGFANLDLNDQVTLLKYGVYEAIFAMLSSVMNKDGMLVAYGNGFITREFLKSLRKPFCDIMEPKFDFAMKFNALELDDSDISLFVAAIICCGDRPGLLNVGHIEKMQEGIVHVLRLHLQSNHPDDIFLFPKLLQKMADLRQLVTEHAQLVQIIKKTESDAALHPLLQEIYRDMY
Procedure: (§1) A multiple reporter transcription unit (MRTU) library consisting of 48 transcription factor binding sites was transfected into the HepG2 human liver hepatoma cell line. In addition to the cis-acting reporter genes (CIS), a modification of the approach was used to generate a trans-system (TRANS) with a mammalian one-hybrid assay consisting of an additional 25 MRTU library reporting the activity of nuclear receptor super-family members. […] These assays were performed by Attagene Inc. (Morrisville NC) under contract to EPA.
(§2) In addition to the cis-acting reporter genes (CIS), a modification of the approach was used to generate a trans-system (TRANS) with a mammalian one-hybrid assay consisting of an additional 25 MRTU library reporting the activity of nuclear receptor super-family members. […] Chemicals were then tested in the CIS and TRANS assays at seven concentrations starting at the MTC and followed by three-fold serial dilutions. These assays were performed by Attagene Inc. (Morrisville NC) under contract to EPA. Detailed description of the methods, data and analysis methods for this dataset will be presented in a separate publication.

PXR (NR1I2) [2] = target: T2, PXR (NR1I2) (Homo sapiens, UniProt O75469); assay: ATG_PXRE_CIS: Factorial reporter gene assay (HepG2); type: cell-based; set-up: endogenous in cells; host or cells: HepG2
T2 sequence (O75469 1-434): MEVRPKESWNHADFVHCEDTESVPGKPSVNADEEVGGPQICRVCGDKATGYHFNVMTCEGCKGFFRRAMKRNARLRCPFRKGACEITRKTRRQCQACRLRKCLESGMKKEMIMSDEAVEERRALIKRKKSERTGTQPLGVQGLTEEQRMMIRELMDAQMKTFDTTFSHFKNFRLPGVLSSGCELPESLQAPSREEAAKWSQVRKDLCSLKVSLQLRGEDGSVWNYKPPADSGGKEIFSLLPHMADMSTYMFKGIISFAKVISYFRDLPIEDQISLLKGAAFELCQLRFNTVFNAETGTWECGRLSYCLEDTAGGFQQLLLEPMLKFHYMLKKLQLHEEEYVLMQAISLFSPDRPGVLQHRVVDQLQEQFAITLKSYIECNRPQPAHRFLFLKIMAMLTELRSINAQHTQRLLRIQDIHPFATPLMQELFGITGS
In short: (§3)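 CIS (PXRE): HepG2 transfected with 48 TF-binding-site MRTU library. TRANS (ERRg, FXR, PPARg): one-hybrid format, extra 25 nuclear-receptor MRTUs. 7 concs, top = MTC, 3-fold serial dilution.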

[3] = target: T3, PPARG (peroxisome proliferator-activated receptor gamma) (Homo sapiens, UniProt P37231); assay: ATG_PPARg_TRANS: Factorial reporter gene assay (HepG2); type: cell-based; settings: HepG2 reporter
T3 construct: expressed in transfected cells; host or cells: HepG2
T3 sequence (P37231 1-505): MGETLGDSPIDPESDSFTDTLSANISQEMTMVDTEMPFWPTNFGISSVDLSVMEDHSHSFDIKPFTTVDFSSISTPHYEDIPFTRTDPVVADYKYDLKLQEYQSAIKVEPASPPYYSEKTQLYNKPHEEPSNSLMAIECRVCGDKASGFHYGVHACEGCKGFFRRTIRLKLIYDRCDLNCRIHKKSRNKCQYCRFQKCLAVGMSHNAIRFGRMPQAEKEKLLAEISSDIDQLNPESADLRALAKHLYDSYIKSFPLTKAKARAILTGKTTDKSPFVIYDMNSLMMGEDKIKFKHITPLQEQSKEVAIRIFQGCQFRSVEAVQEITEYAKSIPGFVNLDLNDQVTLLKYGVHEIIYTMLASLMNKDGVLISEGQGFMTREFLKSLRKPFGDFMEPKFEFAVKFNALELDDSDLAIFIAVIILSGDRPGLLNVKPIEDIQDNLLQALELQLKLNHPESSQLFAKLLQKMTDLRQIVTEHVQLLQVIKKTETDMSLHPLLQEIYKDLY
In short: as §3

Rat Liver [4] = settings: chronic study, rat liver; ref ToxRefDB; cited from earlier work
[5] = target: T4, ESR1 (estrogen receptor 1) (Homo sapiens, UniProt P03372); assay: ATG_ERE_CIS: Factorial reporter gene assay (HepG2); type: cell-based
T4 construct: expressed in transfected cells; host or cells: HepG2
T4 sequence (P03372 whole entry): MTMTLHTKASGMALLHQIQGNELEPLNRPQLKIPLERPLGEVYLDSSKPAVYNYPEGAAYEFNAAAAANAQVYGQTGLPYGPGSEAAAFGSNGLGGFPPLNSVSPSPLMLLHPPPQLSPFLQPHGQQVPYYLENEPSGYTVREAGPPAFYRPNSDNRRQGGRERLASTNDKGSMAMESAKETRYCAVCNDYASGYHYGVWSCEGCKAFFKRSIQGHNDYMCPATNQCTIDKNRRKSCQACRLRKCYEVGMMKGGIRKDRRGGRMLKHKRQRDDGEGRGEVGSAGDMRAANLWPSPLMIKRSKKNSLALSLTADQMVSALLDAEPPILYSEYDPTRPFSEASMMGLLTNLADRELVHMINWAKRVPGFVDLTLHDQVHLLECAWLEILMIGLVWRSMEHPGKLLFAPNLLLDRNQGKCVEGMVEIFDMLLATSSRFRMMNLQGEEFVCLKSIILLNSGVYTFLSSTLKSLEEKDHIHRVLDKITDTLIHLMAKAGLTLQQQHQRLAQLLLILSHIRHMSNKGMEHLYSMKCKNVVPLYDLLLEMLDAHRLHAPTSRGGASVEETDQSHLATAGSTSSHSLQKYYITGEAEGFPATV
Procedure: as §1, §2

Rat Liver [6] = settings: chronic study, rat liver; ref ToxRefDB; cited from earlier work; remark: listed apart in the source
[7] = target: T5, RXRB (retinoid X receptor, beta) (Homo sapiens, UniProt P28702); assay: ATG_RXRb_TRANS: Factorial reporter gene assay (HepG2); type: cell-based; settings: HepG2 reporter
T5 construct: expressed in transfected cells; host or cells: HepG2
T5 sequence (P28702 1-533): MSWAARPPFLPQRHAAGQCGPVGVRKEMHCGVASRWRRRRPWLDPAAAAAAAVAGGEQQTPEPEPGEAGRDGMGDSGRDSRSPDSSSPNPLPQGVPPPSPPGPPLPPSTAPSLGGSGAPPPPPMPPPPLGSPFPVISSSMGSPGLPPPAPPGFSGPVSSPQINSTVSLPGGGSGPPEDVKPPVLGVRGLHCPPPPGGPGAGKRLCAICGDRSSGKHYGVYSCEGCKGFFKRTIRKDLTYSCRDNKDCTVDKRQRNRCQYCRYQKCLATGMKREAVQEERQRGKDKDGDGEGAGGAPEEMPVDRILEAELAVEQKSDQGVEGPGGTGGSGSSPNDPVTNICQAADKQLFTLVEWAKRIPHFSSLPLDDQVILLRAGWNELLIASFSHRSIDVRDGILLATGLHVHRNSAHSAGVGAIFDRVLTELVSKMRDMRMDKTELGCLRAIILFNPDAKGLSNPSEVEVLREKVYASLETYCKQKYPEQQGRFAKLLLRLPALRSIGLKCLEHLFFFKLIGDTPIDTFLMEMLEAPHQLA
Procedure: as §1, §2

Rat Liver [8] = settings: chronic study, rat liver; ref ToxRefDB; cited from earlier work; remark: listed apart in the source
PXR (NR1I2) [9] = target: T2, PXR (NR1I2); assay: NVS_NR_hPXR: Human PXR Fluormone PXR (SXR) green (cell-free HTS); type: binding
In short: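 Responses were normalized to same-plate solvent controls as percent of neutral control. AC50 values came from Hill-equation fits of concentration-response curves.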

[10] = target: T4, ESR1 (estrogen receptor 1); assay: ATG_ERa_TRANS: Factorial reporter gene assay (HepG2); type: cell-based
In short: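 HepG2 cells transfected with multiplexed reporter libraries: cis-acting binding-site reporters (CIS) and a one-hybrid nuclear-receptor trans system (TRANS). Chemicals tested at seven concentrations, starting at the maximum tolerated concentration with three-fold serial dilutions.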

CAR (NR1I3) = target: T6, CAR (NR1I3) (Homo sapiens, UniProt Q14994); assay: ATG_CAR_TRANS: Factorial reporter gene assay (HepG2); type: cell-based; set-up: endogenous in cells; host or cells: HepG2; settings: HepG2 reporter
T6 sequence (Q14994 1-352): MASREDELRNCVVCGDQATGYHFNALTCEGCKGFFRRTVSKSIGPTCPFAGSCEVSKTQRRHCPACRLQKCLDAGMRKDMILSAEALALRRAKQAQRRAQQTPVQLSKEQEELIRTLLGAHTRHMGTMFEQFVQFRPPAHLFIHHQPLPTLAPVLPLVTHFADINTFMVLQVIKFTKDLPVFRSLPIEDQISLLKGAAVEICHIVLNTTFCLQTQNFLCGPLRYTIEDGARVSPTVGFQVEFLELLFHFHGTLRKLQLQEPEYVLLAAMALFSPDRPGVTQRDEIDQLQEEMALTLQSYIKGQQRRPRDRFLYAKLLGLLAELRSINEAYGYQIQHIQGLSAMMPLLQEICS
Procedure: as §1, §2

CYP1A2 = assay: CLZD_CYP1A2: Change in expression of CYP1A2 (primary human hepatocytes); type: cell-based; settings: 24 hr
In short: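 Primary human hepatocyte cultures were exposed to test chemicals at 5 concentrations (0.004-40 µM) for 6, 24 or 48 hr.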

ERa (ESR1) [11] = target: T7, ERa (ESR1) (Homo sapiens, UniProt P03372); assay: NCGC_ERalpha_Antagonist: GAL4 BLAM Reporter gene assay: ERa; type: cell-based; settings: antagonist mode
T7 construct: expressed in transfected cells; host or cells: HEK293
T7 sequence (P03372 whole entry, the tested form may be a part): as the sequence (P03372 whole entry) above

ERa (ESR1) [12] = target: T7, ERa (ESR1); assay: NCGC_ERalpha_Agonist: GAL4 BLAM Reporter gene assay: ERa; type: cell-based; settings: agonist mode
Procedure: These assays measure binding constants and enzyme inhibition values for nuclear receptors. The targets include [drawing 67] , [drawing 68] , [drawing 69] , [drawing 70] , [drawing 71] , [drawing 72] , [drawing 73] , [drawing 74] , [drawing 75] and [drawing 76] . Each of the nuclear receptor targets was measured in agonist mode. Assays were run at the NIH Chemical Genomics Center (Rockville, MD).
Cell-based HTS Assays: These assays measuring binding constants and enzyme inhibition values for nuclear receptors. The targets include AR, ER, FXR, LXR, PPARα, PPARδ, PPARγ, RXRα, RXRβ and PXR. Each of the nuclear receptor targets was measured in both agonist and antagonist mode, but the antagonist data is still undergoing analysis due to possible interference between cytotoxicity and assay activity, so antagonist mode data were not used in the present analysis. Assays were run at the NIH Chemical Genomics Center (Rockville, MD) as part of the Tox21 collaboration. […] The R^2 was required to be ≥0.5. Values where only the highest concentration exceeded 50% activity were excluded to eliminate weak or false positives. Detailed description of the methods, data and analysis methods for this dataset will be presented in a separate publication.

CYP3A4 = assay: CLZD_CYP3A4: Change in expression of CYP3A4 (primary human hepatocytes); type: cell-based; settings: 24 hr
In short: (§4)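 Primary human hepatocytes exposed to 5 concentrations (0.004-40 µM) for 6, 24 or 48 hr; transcript levels measured by multiplexed quantitative nuclease protection assay. Markers of nuclear receptor pathways: CYP1A1 (AhR), CYP2B6 and ABCB1 (CAR), CYP3A4 (PXR).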

CYP2B6 = assay: CLZD_CYP2B6: Change in expression of CYP2B6 (primary human hepatocytes); type: cell-based; settings: 24 hr
In short: as §4

[13] = 2-year chronic feeding studies in both rat and mouse, ToxRefDB ref 5

Cc1nn(C)c(Oc2ccccc2)c1/C=N/OCc1ccc(C(=O)OC(C)(C)C)cc1 [(Z,E)-Fenpyroximate, tert-butyl 4-[({[(1E)-(1,3-dimethyl-5-phenoxy-1H-pyrazol-4-yl)methylene]amino}oxy)methyl]benzoate]
liver injury (liver histopathology) (liver; [13]): negative for any liver injury

Cc1ccc(-c2c(Cl)nc(C#N)n2S(=O)(=O)N(C)C)cc1 [Cyazofamid, 4-chloro-2-cyano-N,N-dimethyl-5-(4-methylphenyl)-1H-imidazole-1-sulfonamide]
liver injury (liver histopathology) (liver; in vivo): negative for any liver injury

C=C(C)CN(CC)c1c([N+](=O)[O-])cc(C(F)(F)F)cc1[N+](=O)[O-] [Ethalfluralin, N-ethyl-N-(2-methylprop-2-en-1-yl)-2,6-dinitro-4-(trifluoromethyl)aniline]
liver injury (liver histopathology) (liver; [13]): negative for any liver injury

CC1(C(=O)Nc2ccc(O)c(Cl)c2Cl)CCCCC1 [Fenhexamid, N-(2,3-dichloro-4-hydroxyphenyl)-1-methylcyclohexanecarboxamide]
liver injury (liver histopathology) (liver; in vivo): negative for any liver injury

COP(=S)(OC)Oc1ccc(SC)c(C)c1 [Fenthion, O,O-dimethyl O-[3-methyl-4-(methylthio)phenyl] thiophosphate]
liver injury (liver histopathology) (liver; [13]): negative for any liver injury

CCOP(=S)(OCC)Oc1nc(Cl)n(C(C)C)n1 [Isazofos, O-(5-chloro-1-isopropyl-1H-1,2,4-triazol-3-yl) O,O-diethyl thiophosphate]
liver injury (liver histopathology) (liver; [13]): negative for any liver injury

CCNP(=S)(OC)O/C(C)=C/C(=O)OC(C)C (stereo not drawn) [Propetamphos, isopropyl (2E)-3-{[(ethylamino)(methoxy)phosphorothioyl]oxy}but-2-enoate]
liver injury (liver histopathology) (liver; [13]): negative for any liver injury

O=C(O)C(F)(F)C(F)(F)C(F)(F)C(F)(F)C(F)(F)C(F)(F)C(F)(F)F [r241]
ATG_PPARa_TRANS [1]: 4.377
ATG_PXRE_CIS (PXR (NR1I2) [2]; HepG2): 4.367

O=[N+]([O-])c1c(Cl)c(Cl)c(Cl)c(Cl)c1Cl [r278]
ATG_PPARg_TRANS [3]: 4.409
CHR_Rat_Liver_1_AnyLesion (Rat Liver [4]): 6
ATG_ERE_CIS ([5]; HepG2 reporter): 4.854
CHR_Rat_Liver_3_NeoplasticLesion (Rat Liver [6]): 0
ATG_RXRb_TRANS [7]: 4.387
CHR_Rat_Liver_2_PreneoplasticLesion (Rat Liver [8]): 6
NVS_NR_hPXR (PXR (NR1I2) [9]): 4.314
ATG_ERa_TRANS ([10]; HepG2 reporter): 4.284
ATG_CAR_TRANS (CAR (NR1I3)): 4.377
ATG_PXRE_CIS (PXR (NR1I2) [2]; HepG2 reporter): 4.959

COc1ccc(C(c2ccc(OC)cc2)C(Cl)(Cl)Cl)cc1 [row 201]
CLZD_CYP1A2_24 (CYP1A2): 5.201
ATG_ERE_CIS ([5]; HepG2): 5.398
NCGC_ERalpha_Antagonist (ERa (ESR1) [11]): 4.409
NCGC_ERalpha_Agonist (ERa (ESR1) [12]): 5.406
CLZD_CYP3A4_24 (CYP3A4): 4.692
CLZD_CYP2B6_24 (CYP2B6): 5.24
ATG_ERa_TRANS ([10]; HepG2): 5.569
ATG_PXRE_CIS (PXR (NR1I2) [2]; HepG2): 5.036
